Patent publication US12234223B2, “Phthalazinone compound, and preparation method therefor and medical use thereof” (SHANGHAI JEMINCARE PHARMACEUTICALS CO., LTD, priority 2020, dated 2025)

Test: In-vivo pharmacokinetics in rats, oral administration
Design: species or system male SD rats
Settings: for AUC(0-inf) / Cmax / half-life: male, SD, rat, oral 10 mg/kg, plasma; for F: oral 10 mg/kg vs intravenous 1 mg/Kg
Protocol: In this experimental example, the in-vivo pharmacokinetic evaluation was made for rats by intravenous injection and oral administration.
Experimental methods and conditions: male SD rats, 6 to 8 weeks old; all animals had free access to food and water; 5 min, 15 min, 30 min, 1 hr, 2 hr, 4 hr, 8 hr, 24 hr and 48 hr after the rats were subjected to a single intravenous injection of 1 mg/Kg of a compound to be tested (solvent 5% DMSO/15% Solutol/80% Saline), or 15 min, 30 min, 1 hr, 2 hr, 4 hr, 6 hr, 8 hr, 24 hr and 48 hr after the rats were subjected to oral intragastric administration of 10 mg/kg (solvent 5% DMSO/10% Solutol/85% Saline), blood was collected from orbits, not less than 50 μL of each sample was collected, and heparin sodium was used for anticoagulation; the collected samples were placed on ice, and the plasma was centrifugally separated within 1 hour for testing. The drug concentration in the plasma was detected by liquid chromatography tandem mass spectrometry (LC/MS/MS), and the pharmacokinetic parameters were calculated by Phoenix WinNonlin software. Embodiment 82 in CN110612294 A was taken as a control sample 1.

AUC(0-inf) [ng·h/mL] | Cmax [ng/mL] | half-life [h] | F [%] | SMILES
2650 | 147 | 7.62 | 11.9 | CC1(C)[C@H](NC(=O)c2ccc(N3CCC(CN4CCN(c5ccc6c(=O)n(C7CCC(=O)NC7=O)ncc6c5)CC4)CC3)cc2)C(C)(C)[C@H]1Oc1ccc(C#N)c(Cl)c1 (stereo partly drawn) [Compound 1]
3210 | 173 | 8.28 | 5.13 | CC1(C)[C@H](NC(=O)c2ccc(N3CCC(CN4CCN(c5ccc6c(=O)n([C@H]7CCC(=O)NC7=O)ncc6c5)CC4)CC3)cc2)C(C)(C)[C@H]1Oc1ccc(C#N)c(Cl)c1 [Compound 28A]
6200 | 253 | 13.4 | 11.9 | CC1(C)[C@H](NC(=O)c2ccc(N3CCC(CN4CCN(c5ccc6c(=O)n(C7CCC(=O)NC7=O)nc(F)c6c5)CC4)CC3)cc2)C(C)(C)[C@H]1Oc1ccc(C#N)c(Cl)c1 (stereo partly drawn) [Compound 29]
